21 compounds from ChEMBL document CHEMBL3804830, “Efficient synthesis of new antiproliferative steroidal hybrids using the molecular hybridization approach” (Eur J Med Chem, 2016) can be followed below.

Experiment [1] in a line: Antiproliferative activity against human U87 cells assessed as cell growth inhibition after 72 hrs by MTT assay. The following applies: U-87 MG. The experiment is classed as functional, cell-based, U-87MG ATCC.
The subject of another experiment is SH-SY5Y. The experiment is described as follows: Antiproliferative activity against human SH-SY5Y cells assessed as cell growth inhibition after 72 hrs by MTT assay. The class given is functional, cell-based.
Experiment [2] in a line: Antiproliferative activity against human MGC803 cells assessed as cell growth inhibition after 72 hrs by MTT assay. The experiment is classed as functional, cell-based. The following applies: MGC-803, 72 h.
The nature of experiment [3]: Antiproliferative activity against human EC109 cells assessed as cell growth inhibition after 72 hrs by MTT assay. The class given is functional, cell-based. The following applies: ECa-109, 72 h.
The test system of another experiment is MCF7. The experiment can be described thus: cells. The following applies: Homo sapiens, MCF7, 72 h.

Description for MCF7: Antiproliferative activity against human MCF7 cells assessed as cell growth inhibition after 72 hrs by MTT assay

For the compound `C[C@]12CC[C@H](OC(=O)Cn3cc(COc4ccc5ccc(=O)oc5c4)nn3)CC1=CC[C@@H]1[C@@H]2CC[C@]2(C)C(=O)CC[C@@H]12`, the IC50 is 43.7 µM in experiment [1]; 54.9 µM in the experiment on SH-SY5Y; more than 128 µM in experiment [2]; more than 128 µM in experiment [3]; more than 128 µM in the experiment on MCF7.

For the compound `C[C@]12CC[C@H](OC(=O)Cn3cc(CN4C(=O)C(=O)c5cc(F)ccc54)nn3)CC1=CC[C@@H]1[C@@H]2CC[C@]2(C)C(=O)CC[C@@H]12`, the IC50 is 91.1 µM in experiment [1]; 9.25 µM in the experiment on SH-SY5Y; 58.9 µM in experiment [2]; more than 128 µM in experiment [3]; more than 128 µM in the experiment on MCF7.

For `C[C@]12CC[C@H](OC(=O)Cn3cc(COc4ccccc4[N+](=O)[O-])nn3)CC1=CC[C@@H]1[C@@H]2CC[C@]2(C)C(=O)CC[C@@H]12`, the IC50 in experiment [1] is more than 128 µM; with SH-SY5Y, 65 µM; in experiment [2] it was 51.3 µM; in experiment [3], 49.8 µM; in the experiment with MCF7, 45.1 µM.

With `C[C@]12CC[C@H](OC(=O)Cn3cc(COc4ccc(C(=O)/C=C/c5ccc(F)c(F)c5)cc4)nn3)CC1=CC[C@@H]1[C@@H]2CC[C@]2(C)C(=O)CC[C@@H]12`, the 50% inhibitory concentration (IC50) in experiment [1] was more than 128 µM; in the experiment on SH-SY5Y, 42.1 µM; in experiment [2], more than 128 µM; in experiment [3], more than 128 µM; with MCF7, 92.6 µM.

In the case of `C[C@]12CC[C@H](OC(=O)Cn3cc(CNc4cccc([N+](=O)[O-])c4)nn3)CC1=CC[C@@H]1[C@@H]2CC[C@]2(C)C(=O)CC[C@@H]12`, the IC50 is more than 128 µM in experiment [1]; more than 128 µM with SH-SY5Y; 28.6 µM in experiment [2]; 55.4 µM in experiment [3]; 45.2 µM with MCF7.

On to `O=c1c(F)cn(Cc2cn(Cc3ccccc3Cl)nn2)c(=O)n1Cc1cn(Cc2ccccc2Cl)nn1`, for which the IC50 (in experiment [1]; in the experiment with SH-SY5Y; in experiment [2]; in experiment [3]; in the experiment on MCF7) was more than 128 µM throughout.

As for `C[C@]12CC[C@H](OC(=O)Cn3cc(COc4ccc(/C=C/C(=O)c5ccc(F)cc5)cc4)nn3)CC1=CC[C@@H]1[C@@H]2CC[C@]2(C)C(=O)CC[C@@H]12`, the IC50 in experiment [1] is more than 128 µM; with SH-SY5Y, 46.5 µM; in experiment [2], more than 128 µM; in experiment [3] it was more than 128 µM; in the experiment on MCF7, 91.5 µM.

Turning to `C[C@]12CC[C@H](OC(=O)Cn3cc(CN4C(=O)C(=O)c5cccc(Cl)c54)nn3)CC1=CC[C@@H]1[C@@H]2CC[C@]2(C)C(=O)CC[C@@H]12`, the IC50 in experiment [1] was 20.8 µM; in the experiment with SH-SY5Y it was 14.6 µM; in experiment [2], 8.74 µM; in experiment [3] it was 84.6 µM; with MCF7 it was 13.3 µM.

For the compound `C[C@]12CC[C@H](OC(=O)Cn3cc(CNc4ccc(Br)cc4)nn3)CC1=CC[C@@H]1[C@@H]2CC[C@]2(C)C(=O)CC[C@@H]12`, the half-inhibitory concentration (IC50) came out at 86.7 µM in experiment [1]; 59.4 µM in the experiment with SH-SY5Y; 19.4 µM in experiment [2]; 37.1 µM in experiment [3]; 27.6 µM with MCF7.

Take `C[C@]12CC[C@H](OC(=O)Cn3cc(CN4C(=O)C(=O)c5cc(Cl)ccc54)nn3)CC1=CC[C@@H]1[C@@H]2CC[C@]2(C)C(=O)CC[C@@H]12`: the concentration for half-maximal inhibition (IC50) in experiment [1] is 47.9 µM; in the experiment on SH-SY5Y it was 7.32 µM; in experiment [2], 57.8 µM; in experiment [3], 61.7 µM; in the experiment on MCF7, more than 128 µM.

With `C[C@]12CC[C@H](OC(=O)Cn3cc(CN4C(=O)C(=O)c5ccccc54)nn3)CC1=CC[C@@H]1[C@@H]2CC[C@]2(C)C(=O)CC[C@@H]12`, the half-maximal inhibitory concentration (IC50) is 45.6 µM in experiment [1]; 8.62 µM with SH-SY5Y; more than 128 µM in experiment [2]; more than 128 µM in experiment [3]; more than 128 µM with MCF7.

With `C[C@]12CC[C@H](OC(=O)Cn3cc(COc4ccc(C(=O)/C=C/c5ccc(Br)cc5)cc4)nn3)CC1=CC[C@@H]1[C@@H]2CC[C@]2(C)C(=O)CC[C@@H]12`, the IC50 in experiment [1] was more than 128 µM; in the experiment on SH-SY5Y it was 72.6 µM; in experiment [2], more than 128 µM; in experiment [3], 79.8 µM; in the experiment on MCF7, 112 µM.

In the case of `C[C@]12CC[C@H](OC(=O)Cn3cc(CN4C(=O)C(=O)c5cc(Br)ccc54)nn3)CC1=CC[C@@H]1[C@@H]2CC[C@]2(C)C(=O)CC[C@@H]12`, the half-maximal inhibitory concentration (IC50) in experiment [1] was 39.2 µM; in the experiment with SH-SY5Y it was 10.3 µM; in experiment [2], 32.5 µM; in experiment [3] it was 44.1 µM; in the experiment on MCF7 it was more than 128 µM.

`COc1ccc(NCc2cn(CC(=O)O[C@H]3CC[C@@]4(C)C(=CC[C@@H]5[C@@H]4CC[C@]4(C)C(=O)CC[C@@H]54)C3)nn2)cc1`: the 50% inhibitory concentration (IC50) in experiment [1] was 96.5 µM; with SH-SY5Y it was 69.8 µM; in experiment [2], 11.6 µM; in experiment [3] it was 24.7 µM; in the experiment on MCF7 it was 21.3 µM.

As to `C[C@]12CC[C@H](OC(=O)Cn3cc(COc4ccc(Br)cc4)nn3)CC1=CC[C@@H]1[C@@H]2CC[C@]2(C)C(=O)CC[C@@H]12`, the concentration for half-maximal inhibition (IC50) in experiment [1] amounted to 30.1 µM; in the experiment with SH-SY5Y, 22.7 µM; in experiment [2], 48.2 µM; in experiment [3], 21 µM; in the experiment with MCF7, 93.2 µM.

Take `C[C@]12CC[C@H](OC(=O)Cn3cc(CN4C(=O)C(=O)c5c(Cl)cccc54)nn3)CC1=CC[C@@H]1[C@@H]2CC[C@]2(C)C(=O)CC[C@@H]12`: the IC50 in experiment [1] was 33.1 µM; in the experiment with SH-SY5Y, 18.5 µM; in experiment [2], more than 128 µM; in experiment [3] it was 124 µM; in the experiment with MCF7, more than 128 µM.

As for `C[C@]12CC[C@H](OC(=O)Cn3cc(COc4ccc(C(=O)/C=C/c5ccc([N+](=O)[O-])cc5)cc4)nn3)CC1=CC[C@@H]1[C@@H]2CC[C@]2(C)C(=O)CC[C@@H]12`, the IC50 in experiment [1] is more than 128 µM; in the experiment with SH-SY5Y it was more than 128 µM; in experiment [2], 99.5 µM; in experiment [3], more than 128 µM; in the experiment with MCF7, more than 128 µM.

Regarding `C[C@]12CC[C@H](OC(=O)Cn3cc(COc4ccc(C(=O)/C=C/c5ccc(Cl)c(Cl)c5)cc4)nn3)CC1=CC[C@@H]1[C@@H]2CC[C@]2(C)C(=O)CC[C@@H]12`, the IC50 in experiment [1] was more than 128 µM; in the experiment with SH-SY5Y, 36.6 µM; in experiment [2], more than 128 µM; in experiment [3], more than 128 µM; in the experiment with MCF7, more than 128 µM.

On to `Cc1cc(=O)oc2cc(OCc3cn(CC(=O)O[C@H]4CC[C@@]5(C)C(=CC[C@@H]6[C@@H]5CC[C@]5(C)C(=O)CC[C@@H]65)C4)nn3)ccc12`, for which the 50% inhibitory concentration (IC50) was 47.4 µM in experiment [1]; 49.5 µM in the experiment with SH-SY5Y; more than 128 µM in experiment [2]; more than 128 µM in experiment [3]; more than 128 µM with MCF7.

Consider `O=c1[nH]cc(F)c(=O)[nH]1` [FLUOROURACIL], for which the IC50 in experiment [1] was 5.61 µM; in the experiment with SH-SY5Y, 3.26 µM; in experiment [2], 1.25 µM; in experiment [3], 3.17 µM.

On to `C[C@]12CC[C@H](OC(=O)Cn3cc(COc4cc(=O)oc5ccccc45)nn3)CC1=CC[C@@H]1[C@@H]2CC[C@]2(C)C(=O)CC[C@@H]12`, for which the IC50 in experiment [1] is 40 µM; with SH-SY5Y, more than 128 µM; in experiment [2], more than 128 µM; in experiment [3] it was more than 128 µM; in the experiment with MCF7, more than 128 µM.
